Values joined by “and” are separate entries in the source; they are usually repeats but may differ in a detail not shown here. Equal values may be shown once. Inconclusive results and toxic doses are left out. The calls were made as follows: active = survival T/C of 150% or more; inactive = T/C below 125% in these data.
System: P388 leukemia ip, CD2F1 mice, survival T/C
Test: NCI In Vivo Anticancer Drug Screen. Data for tumor model P388 Leukemia (intraperitoneal) in CD2F1 (CDF1) mice
Settings: endpoint: median survival time, higher = longer survival
Summary of the method: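 Mice carrying the transplanted tumor received test compound or vehicle. Survival was recorded in each group, and the value is the treated-group measurement divided by that of the vehicle-treated control group.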

[1] = dose: 50.0 mg/kg/injection, schedule: Q01DX005 (ip), vehicle: Klucel (hydroxypropylcellulose) (HPC)
[2] = dose: 100.0 mg/kg/injection, schedule: Q01DX005 (ip), vehicle: Klucel (hydroxypropylcellulose) (HPC)
[3] = dose: 200.0 mg/kg/injection, schedule: Q01DX005 (ip), vehicle: Klucel (hydroxypropylcellulose) (HPC)
[4] = dose: 50.0 mg/kg/injection, schedule: Q01DX009 (ip), vehicle: Klucel (hydroxypropylcellulose) (HPC)
[5] = dose: 100.0 mg/kg/injection, schedule: Q01DX009 (ip), vehicle: Klucel (hydroxypropylcellulose) (HPC)
[6] = dose: 200.0 mg/kg/injection, schedule: Q01DX009 (ip), vehicle: Klucel (hydroxypropylcellulose) (HPC)
[7] = dose: 50.0 mg/kg/injection, schedule: Q01DX009 (ip), vehicle: saline
[8] = dose: 100.0 mg/kg/injection, schedule: Q01DX009 (ip), vehicle: saline
[9] = dose: 200.0 mg/kg/injection, schedule: Q01DX009 (ip), vehicle: saline
[10] = dose: 50.0 mg/kg/injection, schedule: Q01DX009 (ip), vehicle: saline with Tween-80
[11] = dose: 100.0 mg/kg/injection, schedule: Q01DX009 (ip), vehicle: saline with Tween-80
[12] = dose: 200.0 mg/kg/injection, schedule: Q01DX009 (ip), vehicle: saline with Tween-80
[13] = dose: 50.0 mg/kg/injection, schedule: Q01DX005 (ip), vehicle: saline with Tween-80
[14] = dose: 100.0 mg/kg/injection, schedule: Q01DX005 (ip), vehicle: saline with Tween-80
[15] = dose: 200.0 mg/kg/injection, schedule: Q01DX005 (ip), vehicle: saline with Tween-80
[16] = dose: 6.25 mg/kg/injection, schedule: Q01DX009 (ip), vehicle: saline with Tween-80
[17] = dose: 12.5 mg/kg/injection, schedule: Q01DX009 (ip), vehicle: saline with Tween-80
[18] = dose: 25.0 mg/kg/injection, schedule: Q01DX009 (ip), vehicle: saline with Tween-80
[19] = dose: 3.13 mg/kg/injection, schedule: Q01DX009 (ip), vehicle: saline with Tween-80
[20] = dose: 100.0 mg/kg/injection, schedule: Q04DX003 (ip), vehicle: saline
[21] = dose: 200.0 mg/kg/injection, schedule: Q04DX003 (ip), vehicle: saline
[22] = dose: 400.0 mg/kg/injection, schedule: Q04DX003 (ip), vehicle: saline
[23] = dose: 25.0 mg/kg/injection, schedule: Q01DX005 (ip), vehicle: Klucel (hydroxypropylcellulose) (HPC)

Measured: T/C

NC(=O)COC1OC(CO)C(O)C(O)C1O (stereo not given)
inactive: [1] 97 % of control | [2] 100 % of control | [3] 107 % of control

COc1ccc(C(O)(CCN2CCOCC2)c2ccc3c(c2)OCO3)cc1 (stereo not given)
inactive: [1] 90 % of control | [2] 91 % of control

O=C(CC1(O)C(=O)Nc2ccccc21)c1ccccn1 (stereo not given)
inactive: [4] 102 % of control | [5] 97 % of control | [6] 100 % of control

CSC(=S)n1nc(-c2ccccc2)c(N=Nc2cccc(F)c2)c1-c1ccccc1
inactive: dose: 100.0 mg/kg/injection, schedule: Q04DX002 (ip), vehicle: saline with Tween-80 100 % of control | dose: 200.0 mg/kg/injection, schedule: Q04DX002 (ip), vehicle: saline with Tween-80 97 % of control | dose: 400.0 mg/kg/injection, schedule: Q04DX002 (ip), vehicle: saline with Tween-80 87 % of control

COC(=O)C1C2c3ccccc3C(c3ccccc32)C1(C)C(=O)OC (stereo not given)
inactive: [1] 96 % of control | [2] 102 % of control | [3] 102 % of control

COC(=O)Nc1csc2c1NC(=O)CCCC2
inactive: dose: 200.0 mg/kg/injection, schedule: Q04DX003 (ip), vehicle: Klucel (hydroxypropylcellulose) (HPC) 110 % of control | dose: 400.0 mg/kg/injection, schedule: Q04DX003 (ip), vehicle: Klucel (hydroxypropylcellulose) (HPC) 105 % of control

CN1CCN(c2ccncc2S(=O)(=O)N2CCN(C)CC2)CC1
inactive: [7] 97 % of control | [8] 97 % of control | [9] 87 % of control

Oc1cc(O)c(Br)c(O)c1
inactive: dose: 7.5 mg/kg/injection, schedule: Q01DX005 (ip), vehicle: saline 108 % of control | dose: 15.0 mg/kg/injection, schedule: Q01DX005 (ip), vehicle: saline 111 % of control | dose: 30.0 mg/kg/injection, schedule: Q01DX005 (ip), vehicle: saline 105 % of control

NC(=S)c1cccc(C2Nc3ccccc3O2)c1 (stereo not given)
inactive: [10] 94 % of control | [11] 104 % of control | [12] 104 % of control

O=C(NC(CSSCC(NC(=O)c1ccc([N+](=O)[O-])cc1)C(=O)O)C(=O)O)c1ccc([N+](=O)[O-])cc1 (stereo not given)
inactive: [13] 108 % of control | [14] 101 % of control | [15] 109 % of control

COc1ccc2c(c1)C1(C)CCN(C)CC(C1)C2O (stereo not given)
inactive: [10] 96 % of control and 104 % of control | [11] 91 % of control and 87 % of control | [12] 117 % of control

CC(=O)/C=C/N1CCOCC1
inactive: [7] 119 % of control | [8] 98 % of control | [9] 103 % of control

O=C1CCC(CBr)(C(=O)O)O1 (stereo not given)
inactive: [7] 102 % of control | [8] 111 % of control | [9] 100 % of control

O=C(O)CCN1C(=S)CSC1=S
inactive: [4] 107 % of control | [5] 103 % of control | [6] 100 % of control

O=C(CC(C(=O)c1ccccc1)N1CC1)c1ccccc1 (stereo not given)
inactive: [16] 95 % of control | [17] 100 % of control | [18] 100 % of control and 87 % of control | [10] 116 % of control | [11] 91 % of control

CCOCC1COc2c(cc3[nH]cc(C(=O)OCC)c(=O)c3c2Cl)O1 (stereo not given)
inactive: [10] 111 % of control | [11] 110 % of control | [12] 101 % of control

Clc1cc(CBr)c(CBr)cc1Cl
inactive: [19] 95 % of control | [16] 100 % of control | dose: 12.5 mg/kg/injection, schedule: Q04DX003 (ip), vehicle: saline with Tween-80 113 % of control | dose: 25.0 mg/kg/injection, schedule: Q04DX003 (ip), vehicle: saline with Tween-80 109 % of control

COC(CN(C)CC(OC)OC)OC
inactive: [20] 95 % of control | [21] 100 % of control | [22] 100 % of control

CCOC(=O)c1ccc2c(c1)nc(-c1ccccn1)n2CCc1ccncc1
inactive: [23] 103 % of control | [1] 102 % of control | [2] 102 % of control | [3] 94 % of control

CC(C)(C)C1CCC(NC(=O)c2ccccc2)CC1 (stereo not given)
inactive: [19] 99 % of control | [16] 99 % of control | [17] 93 % of control | [18] 99 % of control

O=[N+]([O-])c1ccc(/C=N/Nc2nnc(-c3ccccc3)c(-c3ccccc3)n2)o1
inactive: dose: 12.5 mg/kg/injection, schedule: Q01DX005 (ip), vehicle: saline with Tween-80 106 % of control | dose: 25.0 mg/kg/injection, schedule: Q01DX005 (ip), vehicle: saline with Tween-80 103 % of control | [13] 93 % of control and 96 % of control | [15] 88 % of control

O=C1OC2=C(CCc3nc(-c4ccccc4)sc32)C(N(c2ccccc2)c2ccccc2)C1(Cl)Cl (stereo not given)
inactive: [1] 96 % of control | [2] 90 % of control | [3] 86 % of control

C=C1CCN(c2ccc(C)cc2)C1=O
inactive: dose: 4.0 mg/kg/injection, schedule: Q01DX009 (ip), vehicle: saline + alcohol 100 % of control | dose: 8.0 mg/kg/injection, schedule: Q01DX009 (ip), vehicle: saline + alcohol 100 % of control | dose: 16.0 mg/kg/injection, schedule: Q01DX009 (ip), vehicle: saline + alcohol 96 % of control | dose: 64.0 mg/kg/injection, schedule: Q01DX009 (ip), vehicle: saline + alcohol 94 % of control

CC(CCN(C)C)N(C)C (stereo not given)
inactive: dose: 50.0 mg/kg/injection, schedule: Q01DX005 (ip), vehicle: suspension in saline 106 % of control | dose: 100.0 mg/kg/injection, schedule: Q01DX005 (ip), vehicle: suspension in saline 98 % of control

O=C(Nc1ccc(Cl)cc1)Nc1nnc2nc(C3(c4nc5nnc(NC(=O)Nc6ccc(Cl)cc6)n5[nH]c4=O)CCCC3=O)c(=O)[nH]n12
inactive: dose: 30.0 mg/kg/injection, schedule: Q01DX005 (ip), vehicle: saline with Tween-80 95 % of control | dose: 60.0 mg/kg/injection, schedule: Q01DX005 (ip), vehicle: saline with Tween-80 91 % of control and 95 % of control | dose: 240.0 mg/kg/injection, schedule: Q01DX005 (ip), vehicle: saline with Tween-80 86 % of control

Fc1ccc2c(c1)C(Br)c1ccccc1-2 (stereo not given)
inactive: [16] 104 % of control | [17] 100 % of control | [18] 109 % of control

CC(=O)c1cc(-c2ccccn2)c(=O)n2ccccc12
inactive: [17] 105 % of control | [18] 99 % of control | [10] 100 % of control and 87 % of control

CCCCOc1ccc(C(C)c2cc3c(cc2OC)OCO3)cc1 (stereo not given)
inactive: [23] 107 % of control | [1] 95 % of control | [2] 101 % of control | [3] 98 % of control

Cn1c(=O)c2c(nc(Cl)n2Cc2ccc([N+](=O)[O-])cc2)n(C)c1=O
inactive: [20] 95 % of control | [21] 92 % of control | [22] 90 % of control

COc1cc(N=Nc2ccc(N)nc2N)c(OC)cc1N=Nc1ccc([N+](=O)[O-])cc1
inactive: [13] 115 % of control | [14] 107 % of control | [15] 107 % of control

Source: PubChem BioAssay AID330 (DTP/NCI, 2004)
